# Reference: US11214803B2, “Modulators of YAP1 expression” (Ionis Pharmaceuticals, Inc., priority 2019, dated 2022)
# Strand notation (5' to 3'): a small letter for the sugar, then the base; units joined by * are phosphorothioate-linked, units joined directly phosphodiester-linked; [ ] holds rarer units or linkages, { } end groups; capitals alone tell only the bases. e = 2'-O-(2-methoxyethyl) (MOE); k = constrained ethyl (cEt); [5mC] = 5-methylcytosine; d = 2'-deoxy (DNA); m = 2'-O-methyl
# Tested on: Yap1 mRNA
# Experiment: Antisense inhibition of human Yap1 in SNU-449 cells by modified oligonucleotides, single dose (Example 5, RTS36584)
# Type: cell-based
# Summary of the method: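 Values are % of untreated control: Yap1 mRNA by quantitative RT-PCR (RTS36584), normalized to RIBOGREEN total RNA. Oligonucleotides were dosed at 2,000 nM, free uptake, in SNU-449 cells, with roughly 48 h exposure before RNA isolation.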
# [1] = Table 42 (separate experiment), SNU-449 cells, 10,000 cells per well, free uptake, 2,000 nM modified oligonucleotide, approximately 48 hours, RTS36584, normalized to RIBOGREEN, Yap1 mRNA relative to untreated control cells
# [2] = Table 50, Yap1 mRNA remaining as percent of untreated control (UT), SNU-449 cells, single dose
# [3] = Table 41, SNU-449 cells, 10,000 cells per well, free uptake, 2,000 nM modified oligonucleotide, approximately 48 hours, RTS36584, normalized to RIBOGREEN, Yap1 mRNA relative to untreated control cells
# [4] = Table 49, Yap1 mRNA level relative to untreated control, modified oligonucleotides targeting SEQ ID NO.: 1 and 2
# [5] = Table 43 experiment, SNU-449 cells, 10,000 cells per well, free uptake, 2,000 nM, approximately 48 hours, RTS36584, Yap1 mRNA normalized to RIBOGREEN, relative to untreated control cells
# [6] = Table 39, SNU-449 cells, 10,000 cells per well, free uptake, 2,000 nM oligonucleotide, approx. 48 hours, RTS36584, normalized to RIBOGREEN, Yap1 mRNA relative to untreated control
# [7] = Table 40 (separate experiment), SNU-449 cells, 10,000 cells per well, free uptake, 2,000 nM oligonucleotide, approx. 48 hours, RTS36584, normalized to RIBOGREEN, Yap1 mRNA relative to untreated control
# [8] = Table 51, Yap1 mRNA remaining as percent of untreated control (UT), SNU-449 cells, single dose
substance,measurement,setting,value
1198332 (kT*k[5mC]*kA*dG*dA*dT*dT*dT*dA*dG*dG*dA*kT*eG*k[5mC]*eA; antisense) [Compound 1198332],YAP1 (% UT),"Table 48, Yap1 mRNA level relative to untreated control, modified oligonucleotides targeting SEQ ID NO.: 1 and 2",58 % UT
1198235 (kT*kG*d[5mC]*dT*dT*dT*dG*dG*dA*dA*dG*eA*eT*e[5mC]*kT*kG) [Compound 1198235],YAP1 (% UTC),[1],49 % UTC
1198564 (antisense kA*kA*k[5mC]*dA*d[5mC]*dT*dG*dA*dG*dG*dT*dA*kT*kA*kA*e[5mC]) [Compound 1198564],YAP1 (% UT),[2],44 % UT
1198630 (kA*kA*dT*dT*dG*dT*d[5mC]*dT*d[5mC]*dA*dT*dG*k[5mC]*e[5mC]*kT*eT; antisense) [Compound 1198630],YAP1 (% UTC),[3],37 % UTC
1198617 (antisense k[5mC]*kT*kT*dT*dA*dA*dA*dG*dT*dG*dT*dA*kT*kG*kT*e[5mC]) [Compound 1198617],YAP1 (% UT),[2],34 % UT
1198554 (antisense kT*kT*kA*dG*dA*dG*dT*dA*dT*dG*dT*dG*kG*k[5mC]*kA*eA) [Compound 1198554],YAP1 (% UT),[4],16 % UT
1198464 (antisense kA*kT*dA*dT*dG*dG*dA*dA*dA*dT*dT*eG*kT*e[5mC]*kT*e[5mC]) [Compound 1198464],YAP1 (% UTC),[5],41 % UTC
1200861 (kT*kT*kA*dA*dA*mG*dT*dG*dT*dA*dT*dG*dT*k[5mC]*kA*kG; antisense) [Compound 1200861],YAP1 (% UT),"Table 52, Yap1 mRNA, modified oligonucleotides targeting SEQ ID NO: 1 and 2",10 % UT
1198672 (antisense kA*kT*dT*dT*dA*dG*dG*dA*dT*dG*d[5mC]*dA*kT*eG*kG*eT) [Compound 1198672],YAP1 (% UTC),[3],41 % UTC
1198423 (kT*d[5mC]*dT*dT*dA*dT*dA*dT*dG*dG*dT*kT*eT*kT*eG*kT) [Compound 1198423],YAP1 (% UTC),[6],10 % UTC
1198915 (k[5mC]*kT*dT*dT*dT*dA*d[5mC]*dA*dT*dT*dA*kG*dG*kA*dA*k[5mC]; antisense) [Compound 1198915],YAP1 (% UTC),"Table 45, Yap1 mRNA as percent of untreated control, SNU-449 cells, single dose",37 % UTC
1198751 (kT*eT*kG*dG*dA*dA*dG*dA*dT*d[5mC]*dT*dG*eA*eA*kA*k[5mC]; antisense) [Compound 1198751],YAP1 (% UTC),[7],76 % UTC
1198693 (antisense kA*kT*dG*dT*dA*dA*dT*dA*dT*dT*dG*d[5mC]*kA*eA*kT*e[5mC]) [Compound 1198693],YAP1 (% UTC),[1],92 % UTC
1197289 (kG*kG*kT*dA*mU*dA*dA*d[5mC]*dT*dG*dG*dG*d[5mC]*kA*kA*kA) [Compound 1197289],YAP1 (% UT),[8],48 % UT
1198729 (kA*eT*kA*dT*dT*dA*dG*dA*dG*dT*dA*dT*eG*eT*kG*kG; antisense) [Compound 1198729],YAP1 (% UTC),[7],21 % UTC
1198619 (kT*kA*kA*dG*dG*dT*dT*dT*d[5mC]*d[5mC]*d[5mC]*dA*kG*kA*kT*eT) [Compound 1198619],YAP1 (% UT),[2],53 % UT
1198367 (kG*kA*k[5mC]*dT*dA*dA*dG*dT*dA*dA*dG*dG*kT*eT*kT*e[5mC]; antisense) [Compound 1198367],YAP1 (% UT),[4],58 % UT
1198739 (k[5mC]*eA*k[5mC]*dT*dG*dA*dG*dG*dT*dA*dT*dA*eA*e[5mC]*kT*kG; antisense) [Compound 1198739],YAP1 (% UTC),[3],94 % UTC
1198838 (kT*kT*dT*dG*dG*dA*dA*dG*dA*dT*d[5mC]*kT*eG*kA*eA*kA; antisense) [Compound 1198838],YAP1 (% UT),"Table 46, Yap1 mRNA as percent of untreated control, SNU-449 cells, single dose",66 % UT
1197308 (kA*kA*kT*dA*mU*dT*dG*d[5mC]*dA*dA*dT*d[5mC]*dT*kG*kT*k[5mC]; antisense) [Compound 1197308],YAP1 (% UT),[8],49 % UT
1198501 (kG*kA*dT*dT*dT*dA*dG*dG*dA*dT*dG*e[5mC]*kA*eT*kG*eG; antisense) [Compound 1198501],YAP1 (% UTC),"Table 44 experiment, SNU-449 cells, 10,000 cells per well, free uptake, 2,000 nM, approximately 48 hours, RTS36584, Yap1 mRNA normalized to RIBOGREEN, relative to untreated control cells",5 % UTC
1198409 (kA*dG*dT*dG*d[5mC]*dT*dT*dT*dG*dG*dA*kA*eG*kA*eT*k[5mC]; antisense) [Compound 1198409],YAP1 (% UTC),[6],19 % UTC
1198480 (antisense kT*kT*dT*dT*dA*d[5mC]*dA*dT*dT*dA*dG*eG*kA*eA*k[5mC]*eA) [Compound 1198480],YAP1 (% UTC),[5],75 % UTC
